From PubChem BioAssay AID192 (DTP/NCI, 2004)
Several values for one entry are separate records, joined by “and”; a condition that tells them apart may be missing. Equal values may be shown once. Inconclusive results and toxic doses are left out.

Tested on: BDF1 mice, B16 melanoma ip, median survival T/C
Test: NCI In Vivo Anticancer Drug Screen. Data for tumor model B16 Melanoma (intraperitoneal) in B6D2F1 (BDF1) mice
Settings: endpoint: median survival time, higher = longer survival
Method in brief: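 Vehicle-treated animals serve as the reference (C); treated animals (T) are scored for survival or tumor size after tumor transplantation.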

[1] = dose: 0.25 mg/kg/injection, schedule: Q01DX009 (ip), vehicle: saline with Tween-80
[2] = dose: 0.5 mg/kg/injection, schedule: Q01DX009 (ip), vehicle: saline with Tween-80
[3] = dose: 1.0 mg/kg/injection, schedule: Q01DX009 (ip), vehicle: saline with Tween-80
[4] = dose: 2.0 mg/kg/injection, schedule: Q01DX009 (ip), vehicle: saline with Tween-80
[5] = dose: 6.25 mg/kg/injection, schedule: Q01DX009 (ip), vehicle: saline with Tween-80
[6] = dose: 12.5 mg/kg/injection, schedule: Q01DX009 (ip), vehicle: saline with Tween-80
[7] = dose: 25.0 mg/kg/injection, schedule: Q01DX009 (ip), vehicle: saline with Tween-80

SMILES: O=NN(CCCl)C(=O)NCCCl
- T/C [1]: 102 % of control
- T/C (dose: 0.5 mg/kg/injection, schedule: Q01DX009 (ip), vehicle: saline + alcohol): 105 % of control and 110 % of control
- T/C [2]: 109 % of control
- T/C (dose: 1.0 mg/kg/injection, schedule: Q01DX009 (ip), vehicle: saline + alcohol): 108 % of control and 115 % of control
- T/C [3]: 110 % of control and 113 % of control (2×)
- T/C (dose: 1.5 mg/kg/injection, schedule: Q01DX009 (ip), vehicle: alcohol): 113 % of control and 116 % of control
- T/C (dose: 1.5 mg/kg/injection, schedule: Q01DX009 (ip), vehicle: other): 95 % of control and 104 % of control
- T/C (dose: 1.87 mg/kg/injection, schedule: Q01DX009 (ip), vehicle: saline): 115 % of control
- T/C (dose: 1.9 mg/kg/injection, schedule: Q01DX001 (ip), vehicle: saline): 115 % of control
- T/C (dose: 2.0 mg/kg/injection, schedule: Q01DX009 (ip), vehicle: saline + alcohol): 109 % of control and 118 % of control
- T/C [4]: 109 % of control and 115 % of control and 122 % of control
- T/C (dose: 2.0 mg/kg/injection, schedule: Q04DX003 (ip), vehicle: saline + alcohol): 118 % of control
- T/C (dose: 3.0 mg/kg/injection, schedule: Q01DX009 (ip), vehicle: other): 105 % of control and 114 % of control
- T/C (dose: 3.75 mg/kg/injection, schedule: Q01DX001 (ip), vehicle: saline): 115 % of control
- T/C (dose: 4.0 mg/kg/injection, schedule: Q01DX009 (ip), vehicle: saline with Tween-80): 152 % of control
- T/C (dose: 5.0 mg/kg/injection, schedule: Q01DX001 (ip), vehicle: saline + alcohol): 111 % of control and 122 % of control
- T/C (dose: 5.0 mg/kg/injection, schedule: Q01DX009 (ip), vehicle: other): 190 % of control
- T/C (dose: 5.0 mg/kg/injection, schedule: Q04DX003 (ip), vehicle: saline + alcohol): 113 % of control and 115 % of control
- T/C (dose: 6.0 mg/kg/injection, schedule: Q01DX009 (ip), vehicle: alcohol): 160 % of control and 188 % of control
- T/C (dose: 6.0 mg/kg/injection, schedule: Q01DX009 (ip), vehicle: other): 171 % of control and 179 % of control
- T/C (dose: 7.5 mg/kg/injection, schedule: Q01DX001 (ip), vehicle: saline): 119 % of control
- T/C (dose: 7.5 mg/kg/injection, schedule: Q01DX009 (ip), vehicle: saline): 192 % of control
- T/C (dose: 8.0 mg/kg/injection, schedule: Q01DX001 (ip), vehicle: saline + alcohol): 107 % of control
- T/C (dose: 8.0 mg/kg/injection, schedule: Q01DX009 (ip), vehicle: saline + alcohol): 207 % of control and 221 % of control
- T/C (dose: 8.0 mg/kg/injection, schedule: Q01DX009 (ip), vehicle: saline with Tween-80): 165 % of control and 168 % of control and 183 % of control
- T/C (dose: 8.0 mg/kg/injection, schedule: Q04DX003 (ip), vehicle: saline + alcohol): 111 % of control
- T/C (dose: 10.0 mg/kg/injection, schedule: Q01DX001 (ip), vehicle: saline): 121 % of control
- T/C (dose: 12.0 mg/kg/injection, schedule: Q01DX009 (ip), vehicle: other): 153 % of control
- T/C (dose: 15.0 mg/kg/injection, schedule: Q01DX009 (ip), vehicle: saline): 200 % of control
- T/C (dose: 16.0 mg/kg/injection, schedule: Q01DX009 (ip), vehicle: saline + alcohol): 53 % of control and 65 % of control
- T/C (dose: 16.0 mg/kg/injection, schedule: Q04DX003 (ip), vehicle: saline + alcohol): 186 % of control
- T/C (dose: 20.0 mg/kg/injection, schedule: Q01DX001 (ip), vehicle: saline): 154 % of control
- T/C (dose: 20.0 mg/kg/injection, schedule: Q04DX003 (ip), vehicle: saline + alcohol): 157 % of control and 210 % of control and 229 % of control
- T/C (dose: 30.0 mg/kg/injection, schedule: Q01DX001 (ip), vehicle: saline + alcohol): 154 % of control
- T/C (dose: 30.0 mg/kg/injection, schedule: Q01DX001 (ip), vehicle: saline): 189 % of control
- T/C (dose: 32.0 mg/kg/injection, schedule: Q01DX009 (ip), vehicle: saline + alcohol): 40 % of control and 44 % of control
- T/C (dose: 32.0 mg/kg/injection, schedule: Q04DX003 (ip), vehicle: saline + alcohol): 248 % of control
- T/C (dose: 40.0 mg/kg/injection, schedule: Q01DX001 (ip), vehicle: saline): 207 % of control
- T/C (dose: 40.0 mg/kg/injection, schedule: Q04DX003 (ip), vehicle: saline + alcohol): 62 % of control and 80 % of control
- T/C (dose: 60.0 mg/kg/injection, schedule: Q01DX001 (ip), vehicle: saline): 106 % of control
- T/C (dose: 64.0 mg/kg/injection, schedule: Q01DX001 (ip), vehicle: saline + alcohol): 42 % of control
- T/C (dose: 64.0 mg/kg/injection, schedule: Q01DX009 (ip), vehicle: saline + alcohol): 28 % of control and 30 % of control
- T/C (dose: 64.0 mg/kg/injection, schedule: Q04DX003 (ip), vehicle: saline + alcohol): 43 % of control
- T/C (dose: 128.0 mg/kg/injection, schedule: Q04DX003 (ip), vehicle: saline + alcohol): 37 % of control
- T/C (dose: 256.0 mg/kg/injection, schedule: Q04DX003 (ip), vehicle: saline + alcohol): 20 % of control

SMILES: CCS(=O)(=O)Nc1cccc(Nc2c3cccc(C)c3nc3c(C)cccc23)c1OC
- T/C [5]: 185 % of control
- T/C [6]: 203 % of control
- T/C [7]: 87 % of control

SMILES: O=[N+]([O-])c1ccc(/C=C/c2ccccc2)c([N+](=O)[O-])c1
- T/C (dose: 100.0 mg/kg/injection, schedule: Q04DX003 (ip), vehicle: Klucel (hydroxypropylcellulose) (HPC)): 97 % of control
- T/C (dose: 200.0 mg/kg/injection, schedule: Q04DX003 (ip), vehicle: Klucel (hydroxypropylcellulose) (HPC)): 96 % of control
- T/C (dose: 400.0 mg/kg/injection, schedule: Q04DX003 (ip), vehicle: Klucel (hydroxypropylcellulose) (HPC)): 97 % of control

SMILES: Cc1nc(N)nc(N)c1-c1ccc(Cl)c(Cl)c1
- T/C [1]: 104 % of control
- T/C [2]: 102 % of control
- T/C (dose: 0.62 mg/kg/injection, schedule: Q01DX009 (ip), vehicle: saline): 102 % of control
- T/C (dose: 0.75 mg/kg/injection, schedule: Q01DX009 (ip), vehicle: saline with Tween-80): 115 % of control
- T/C [3]: 100 % of control
- T/C (dose: 1.0 mg/kg/injection, schedule: Q02DX009 (ip), vehicle: Klucel (hydroxypropylcellulose) (HPC)): 98 % of control
- T/C (dose: 1.0 mg/kg/injection, schedule: Q02DX009 (ip), vehicle: saline with Tween-80): 113 % of control
- T/C (dose: 1.25 mg/kg/injection, schedule: Q01DX009 (ip), vehicle: saline): 107 % of control
- T/C (dose: 1.5 mg/kg/injection, schedule: Q04DX003 (ip), vehicle: saline with Tween-80): 90 % of control
- T/C [4]: 120 % of control
- T/C (dose: 2.0 mg/kg/injection, schedule: Q02DX009 (ip), vehicle: Klucel (hydroxypropylcellulose) (HPC)): 100 % of control
- T/C (dose: 2.0 mg/kg/injection, schedule: Q02DX009 (ip), vehicle: saline with Tween-80): 119 % of control
- T/C (dose: 3.0 mg/kg/injection, schedule: Q01DX009 (ip), vehicle: saline with Tween-80): 112 % of control
- T/C (dose: 3.0 mg/kg/injection, schedule: Q04DX003 (ip), vehicle: saline with Tween-80): 90 % of control
- T/C (dose: 4.0 mg/kg/injection, schedule: Q02DX009 (ip), vehicle: Klucel (hydroxypropylcellulose) (HPC)): 100 % of control
- T/C (dose: 4.0 mg/kg/injection, schedule: Q04DX003 (ip), vehicle: saline with Tween-80): 96 % of control
- T/C (dose: 6.0 mg/kg/injection, schedule: Q04DX003 (ip), vehicle: saline with Tween-80): 102 % of control
- T/C (dose: 8.0 mg/kg/injection, schedule: Q02DX009 (ip), vehicle: Klucel (hydroxypropylcellulose) (HPC)): 121 % of control
- T/C (dose: 8.0 mg/kg/injection, schedule: Q04DX003 (ip), vehicle: saline with Tween-80): 97 % of control
- T/C (dose: 10.0 mg/kg/injection, schedule: Q04DX003 (ip), vehicle: saline with Tween-80): 93 % of control

SMILES: C[N+](C)(C)CC(=O)[O-]
- T/C (dose: 50.0 mg/kg/injection, schedule: Q01DX009 (ip), vehicle: saline): 108 % of control
- T/C (dose: 100.0 mg/kg/injection, schedule: Q01DX009 (ip), vehicle: saline): 101 % of control

SMILES: O=C1CC(C(=O)N2Cc3cc4ccccc4nc3C2)CO1 (stereo not given)
- T/C [5]: 111 % of control
- T/C [6]: 115 % of control
- T/C [7]: 113 % of control
- T/C (dose: 50.0 mg/kg/injection, schedule: Q01DX009 (ip), vehicle: saline with Tween-80): 109 % of control
- T/C (dose: 100.0 mg/kg/injection, schedule: Q01DX009 (ip), vehicle: saline with Tween-80): 116 % of control
- T/C (dose: 200.0 mg/kg/injection, schedule: Q01DX009 (ip), vehicle: saline with Tween-80): 100 % of control

SMILES: CCCCCCCCCCCCCCCCCCOC(=O)Cc1ccc(N(CCCl)CCCl)cc1
- T/C (dose: 180.0 mg/kg/injection, schedule: Q04DX003 (ip), vehicle: saline with Tween-80): 102 % of control
- T/C (dose: 266.0 mg/kg/injection, schedule: Q04DX003 (ip), vehicle: saline with Tween-80): 107 % of control

SMILES: NNc1n[nH]c(=S)n1N
- T/C (dose: 0.78 mg/kg/injection, schedule: Q01DX009 (ip), vehicle: saline with Tween-80): 88 % of control
- T/C (dose: 1.56 mg/kg/injection, schedule: Q01DX009 (ip), vehicle: saline with Tween-80): 93 % of control
- T/C (dose: 3.13 mg/kg/injection, schedule: Q01DX009 (ip), vehicle: saline with Tween-80): 90 % of control
- T/C [5]: 86 % of control
